The IC50 is the point on the concentration scale where inhibition reaches its midpoint.

In US12264134B2 (Merck Sharp & Dohme LLC, priority 2018, dated 2025) one finds IC50 data, which are given here for 19 compounds.

In the assay the target is IDO1 (Homo sapiens, UniProt P14902). In words: IDO1 Cellular Assay in HeLa Cells Stimulated with IFNγ. In kind it is cell-based. The settings on record: read-out: HeLa Cell Potency, IC50.
Chain of IDO1 (P14902 whole entry): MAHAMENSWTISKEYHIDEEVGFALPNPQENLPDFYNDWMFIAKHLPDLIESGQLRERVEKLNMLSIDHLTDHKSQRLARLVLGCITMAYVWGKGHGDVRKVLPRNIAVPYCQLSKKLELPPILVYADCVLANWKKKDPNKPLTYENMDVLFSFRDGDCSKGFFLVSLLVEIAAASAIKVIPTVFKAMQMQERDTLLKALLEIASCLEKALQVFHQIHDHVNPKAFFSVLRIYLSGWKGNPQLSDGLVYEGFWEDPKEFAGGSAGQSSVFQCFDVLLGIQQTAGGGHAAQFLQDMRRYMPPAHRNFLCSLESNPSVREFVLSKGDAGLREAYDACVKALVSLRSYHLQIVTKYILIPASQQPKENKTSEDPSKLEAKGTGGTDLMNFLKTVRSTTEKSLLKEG
With `C[C@@H]1CN(C(=O)c2nn(CC(=O)N3CCN(c4cccc(F)c4F)CC3)c3c2CCC3)C[C@H](C)O1` [Example 35, 1-[4-(2,3-difluorophenyl)piperazin-1-yl]-2-{3-[(2R,6S)-2,6-dimethylmorpholine-4-carbonyl]-5,6-dihydrocyclopenta[c]pyrazol-1(4H)-yl}ethan-1-one], the concentration for half-maximal inhibition (IC50) came to 487 nM.

Take `COc1cc(F)cc(N2CCN(C(=O)Cn3nc(C(=O)N4C[C@@H](C)O[C@@H](C)C4)c4c3CCC4)CC2)c1` [Example 36, 2-{3-[(2R,6S)-2,6-dimethylmorpholine-4-carbonyl]-5,6-dihydrocyclopenta[c]pyrazol-1(4H)-yl}-1-[4-(3-fluoro-5-methoxyphenyl)piperazin-1-yl]ethan-1-one]: the IC50 was determined as 55.5 nM.

Turning to `COc1cc(N2CCN(C(=O)Cn3nc(C(=O)N4C[C@@H](C)O[C@@H](C)C4)c4c3CCC4)CC2)ccc1C` [Example 37, 2-{3-[(2R,6S)-2,6-dimethylmorpholine-4-carbonyl]-5,6-dihydrocyclopenta[c]pyrazol-1(4H)-yl}-1-[4-(3-methoxy-4-methylphenyl)piperazin-1-yl]ethan-1-one], the 50% inhibitory concentration (IC50) was 234 nM.

In the case of `COc1ccc(N2CCN(C(=O)Cn3nc(C(=O)N4C[C@@H](C)O[C@@H](C)C4)c4c3CCC4)CC2)c(C)c1` [Example 38, 2-{3-[(2R,6S)-2,6-dimethylmorpholine-4-carbonyl]-5,6-dihydrocyclopenta[c]pyrazol-1(4H)-yl}-1-[4-(4-methoxy-2-methylphenyl)piperazin-1-yl]ethan-1-one], the IC50 was found to be 124 nM.

For the compound `COc1cccc(N2CCN(C(=O)Cn3nc(C(=O)N4C[C@@H](C)O[C@@H](C)C4)c4c3CCC4)CC2)c1F` [Example 39, 2-{3-[(2R,6S)-2,6-dimethylmorpholine-4-carbonyl]-5,6-dihydrocyclopenta[c]pyrazol-1(4H)-yl}-1-[4-(2-fluoro-3-methoxyphenyl)piperazin-1-yl]ethan-1-one], the IC50 came to 374 nM.

As to `Cc1cc(N2CCN(C(=O)Cn3nc(C(=O)N4C[C@@H](C)O[C@@H](C)C4)c4c3CCC4)CC2)cc(C)c1Cl` [Example 40, 1-[4-(4-chloro-3,5-dimethylphenyl)piperazin-1-yl]-2-{3-[(2R,6S)-2,6-dimethylmorpholine-4-carbonyl]-5,6-dihydrocyclopenta[c]pyrazol-1(4H)-yl}ethan-1-one], the half-maximal inhibitory concentration (IC50) is 223 nM.

Turning to `Cc1cc(F)cc(N2CCN(C(=O)Cn3nc(C(=O)N4C[C@@H](C)O[C@@H](C)C4)c4c3CCC4)CC2)c1` [Example 41, 2-{3-[(2R,6S)-2,6-dimethylmorpholine-4-carbonyl]-5,6-dihydrocyclopenta[c]pyrazol-1(4H)-yl}-1-[4-(3-fluoro-5-methylphenyl)piperazin-1-yl]ethan-1-one], the IC50 stood at 243 nM.

As for `C[C@@H]1CN(C(=O)c2nn(CC(=O)N3CCN(c4ccc(Cl)cc4)CC3)c3c2CCC3)C[C@H](C)O1` [Example 42, 1-[4-(4-chlorophenyl)piperazin-1-yl]-2-{3-[(2R,6S)-2,6-dimethylmorpholine-4-carbonyl]-5,6-dihydrocyclopenta[c]pyrazol-1(4H)-yl}ethan-1-one], the half-maximal inhibitory concentration (IC50) was determined as 147 nM.

Turning to `Cc1cc(Cl)ccc1N1CCN(C(=O)Cn2nc(C(=O)N3C[C@@H](C)O[C@@H](C)C3)c3c2CCC3)CC1` [Example 43, 1-[4-(4-chloro-2-methylphenyl)piperazin-1-yl]-2-{3-[(2R,6S)-2,6-dimethylmorpholine-4-carbonyl]-5,6-dihydrocyclopenta[c]pyrazol-1(4H)-yl}ethan-1-one], the IC50 is 34.8 nM.

`C[C@@H]1CN(C(=O)c2nn(CC(=O)N3CCN(c4cc(F)c(F)cc4Cl)CC3)c3c2CCC3)C[C@H](C)O1` [Example 44, 1-[4-(2-chloro-4,5-difluorophenyl)piperazin-1-yl]-2-{3-[(2R,6S)-2,6-dimethylmorpholine-4-carbonyl]-5,6-dihydrocyclopenta[c]pyrazol-1(4H)-yl}ethan-1-one]: the 50% inhibitory concentration (IC50) came to 260 nM.

`C[C@@H]1CN(C(=O)c2nn(CC(=O)N3CCN(c4ccc(F)c(F)c4)CC3)c3c2CCC3)C[C@H](C)O1` [Example 45, 1-[4-(3,4-difluorophenyl)piperazin-1-yl]-2-{3-[(2R,6S)-2,6-dimethylmorpholine-4-carbonyl]-5,6-dihydrocyclopenta[c]pryazol-1(4H)-yl}ethan-1-one]: the IC50 was determined as 233 nM.

Turning to `Cc1cc(F)ccc1N1CCN(C(=O)Cn2nc(C(=O)N3C[C@@H](C)O[C@@H](C)C3)c3c2CCC3)CC1` [Example 46, 2-{3-[(2R,6S)-2,6-dimethylmorpholine-4-carbonyl]-5,6-dihydrocyclopenta[c]pyrazol-1(4H)-yl}-1-[4-(4-fluoro-2-methylphenyl)piperazin-1-yl]ethan-1-one], the IC50 is 45.2 nM.

As to `COc1ccc(N2CCN(C(=O)Cn3nc(C(=O)N4C[C@@H](C)O[C@@H](C)C4)c4c3CCC4)CC2)c(C)c1C` [Example 47, 2-{3-[(2R,6S)-2,6-dimethylmorpholine-4-carbonyl]-5,6-dihydrocyclopenta[c]pyrazol-1(4H)-yl}-1-[4-(4-methoxy-2,3-dimethylphenyl)piperazin-1-yl]ethan-1-one], the IC50 was determined as 83 nM.

For `Cc1c(N2CCN(C(=O)Cn3nc(C(=O)N4C[C@@H](C)O[C@@H](C)C4)c4c3CCC4)CC2)ccc(F)c1F` [Example 49, 1-[4-(3,4-difluoro-2-methylphenyl)piperazin-1-yl]-2-{3-[(2R,6S)-2,6-dimethylmorpholine-4-carbonyl]-5,6-dihydrocyclopenta[c]pyrazol-1(4H)-yl}ethan-1-one], the 50% inhibitory concentration (IC50) came out at 13.5 nM.

For `Cc1ccc(N2CCN(C(=O)Cn3nc(C(=O)N4C[C@@H](C)O[C@@H](C)C4)c4c3CCC4)CC2)c(C)c1` [Example 50, 2-{3-[(2R,6S)-2,6-dimethylmorpholine-4-carbonyl]-5,6-dihydrocyclopenta[c]pyrazol-1(4H)-yl}-1-[4-(2,4-dimethylphenyl)piperazin-1-yl]ethan-1-one], the IC50 turned out to be 15.1 nM.

Take `C[C@@H]1CN(C(=O)c2nn(CC(=O)N3CCN(c4ccc(C(F)(F)F)cc4)CC3)c3c2CCC3)C[C@H](C)O1` [Example 51, 2-{3-[(2R,6S)-2,6-dimethylmorpholine-4-carbonyl]-5,6-dihydrocyclopenta[c]pyrazol-1(4H)-yl}-1-{4-[4-(trifluoromethyl)phenyl]piperazin-1-yl}ethan-1-one]: the IC50 was determined as 173 nM.

`C[C@@H]1CN(C(=O)c2nn(CC(=O)N3CCN(c4cccc5c4CCCC5)CC3)c3c2CCC3)C[C@H](C)O1` [Example 52, 2-{3-[(2R,6S)-2,6-dimethylmorpholine-4-carbonyl]-5,6-dihydrocyclopenta[c]pyrazol-1(4H)-yl}-1-[4-(5,6,7,8-tetrahydronaphthalen-1-yl)piperazin-1-yl]ethan-1-one]: the IC50 worked out at 10.4 nM.

Regarding `Cc1cc(N2CCN(C(=O)Cn3nc(C(=O)N4C[C@@H](C)O[C@@H](C)C4)c4c3CCC4)CC2)ccc1F` [Example 53], the concentration for half-maximal inhibition (IC50) is 76.9 nM.

Turning to `C[C@@H]1CN(C(=O)c2nn(CC(=O)N3CCN(c4ccc(Cl)c(F)c4)CC3)c3c2CCC3)C[C@H](C)O1` [Example 54, 1-[4-(4-chloro-3-fluorophenyl)piperazin-1-yl]-2-{3-[(2R,6S)-2,6-dimethylmorpholine-4-carbonyl]-5,6-dihydrocyclopenta[c]pyrazol-1(4H)-yl}ethan-1-one], the IC50 was 57.1 nM.
